“Also recorded” adds a separate entry of the source. Peptide text beside a SMILES is read from it. * marks the point of attachment. Cbz = O=C(OCc1ccccc1)*

The test system of experiment [1] is nSR100. As to the kind of experiment: nSR100 protein levels by western blot in dox-inducible, nSR100-expressing 293T cells. Type of experiment: cell-based, human. Particulars: versus DMSO or control siRNAs. The source says: Tubulin detection was used as loading control.
RT-PCR assays were used to confirm FBXW11 knockdown. nSR100 protein levels were monitored using a western blot. Tubulin and 1-actin detection was used to control for loading.
By applying affinity purification coupled to mass-spectrometry (AP-MS), several interaction nSR100 partner proteins were detected that provide insight into mechanisms of post-translational regulation of nSR100 levels. For example, AP-MS experiments identified the F-box protein FBXW11 (also known as 1TRCP2) as an nSR100 interaction partner. The Skp-Cullin-F-box (SCF) complex is a multi-protein complex that regulates cellular protein levels via ubiquitin-mediated proteolysis. FBXW11 is an E3 ubiquitin ligase that confers specificity to the SCF complex by recognizing a particular phosphodegron on targets. In addition, Skp1, which is required for recognizing and binding FBXW11, was also detected in nSR100 AP-MS experiments. Phosphorylation of consensus binding sites for F-box proteins, including FBXW11, is typically required for targeting of proteins for degradation by the proteosomal pathway. The set of nSR100 interaction partners identified by AP-MS included several kinases such as PLK1, GSK3B, CSNK2, CSNK1, CDK1 and SRPK1, as well as other kinases that may control nSR100 levels and or activity.
In general terms: Immunoblotting shows a protein as a band on a membrane.

The target in experiment [2] is T1, nSR100 (Homo sapiens, UniProt A7MD48).
T1 construct: expressed in transfected cells; host or cells: 293T (human kidney cells), doxycycline-inducible nSR100 expression
T1 sequence (A7MD48 1-611): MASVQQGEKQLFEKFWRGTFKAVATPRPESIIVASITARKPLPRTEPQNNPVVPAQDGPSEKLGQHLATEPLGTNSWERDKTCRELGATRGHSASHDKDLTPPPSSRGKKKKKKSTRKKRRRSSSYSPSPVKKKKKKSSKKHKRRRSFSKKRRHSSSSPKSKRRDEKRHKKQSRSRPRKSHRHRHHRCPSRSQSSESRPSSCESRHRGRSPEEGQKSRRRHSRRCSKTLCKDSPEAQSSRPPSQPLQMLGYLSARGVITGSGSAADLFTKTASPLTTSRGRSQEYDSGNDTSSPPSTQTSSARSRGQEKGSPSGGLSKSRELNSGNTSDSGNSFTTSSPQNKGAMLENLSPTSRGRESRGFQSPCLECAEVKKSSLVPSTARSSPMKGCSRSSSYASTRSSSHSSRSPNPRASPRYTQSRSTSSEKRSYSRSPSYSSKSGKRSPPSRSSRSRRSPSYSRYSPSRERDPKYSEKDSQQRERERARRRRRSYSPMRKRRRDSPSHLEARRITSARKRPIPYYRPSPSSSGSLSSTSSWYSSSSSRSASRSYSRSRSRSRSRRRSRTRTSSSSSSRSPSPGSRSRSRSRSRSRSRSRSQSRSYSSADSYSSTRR
As to the kind of experiment: Regulation by nSR100: microexon inclusion level (PSI) by RNA-Seq in human 293T cells overexpressing nSR100 (Table 1). It counts as cell-based. Particulars: YES/NO. The source says: A) Percent of neural-regulated exons within each length class that is affected by nSR100 expression in human 293T kidney cells (absolute ΔPSI>15, light grey or absolute ΔPSI>25, dark grey). p-values correspond to two-sided proportion tests of affected vs. non-affected events. B) Average normalized density of nSR100 cross-linked sites in 200 nt windows encompassing neural-regulated exons of different length classes. FPB, Fragments Per Billion. […]
(§1) An RNA-Seq analysis pipeline was developed to detect and quantify all AS event classes involving all hypothetically possible splice junctions formed by the usage of annotated and unannotated splice sites, including those that demarcate microexons. […]
A multi-module analysis pipeline was developed that uses RNA-Seq, expressed sequence tag (EST) and cDNA data, as well as gene annotations and evolutionary conservation, to assemble libraries of exon-exon-junctions (EEJs) for subsequent read alignment to detect and quantify AS events in RNA-Seq data. […] Alt3 or Alt5 events were quantified based on the fraction of reads supporting the usage of each alternative splice site. Intron retention was analyzed as recently described (Braunschweig et al., 2014). […]

The target of experiment [3] is T2, nSR100 (Mus musculus, UniProt Q8BKA3).
T2 construct: host or cells: mouse N2A cells
T2 sequence (Q8BKA3 1-608): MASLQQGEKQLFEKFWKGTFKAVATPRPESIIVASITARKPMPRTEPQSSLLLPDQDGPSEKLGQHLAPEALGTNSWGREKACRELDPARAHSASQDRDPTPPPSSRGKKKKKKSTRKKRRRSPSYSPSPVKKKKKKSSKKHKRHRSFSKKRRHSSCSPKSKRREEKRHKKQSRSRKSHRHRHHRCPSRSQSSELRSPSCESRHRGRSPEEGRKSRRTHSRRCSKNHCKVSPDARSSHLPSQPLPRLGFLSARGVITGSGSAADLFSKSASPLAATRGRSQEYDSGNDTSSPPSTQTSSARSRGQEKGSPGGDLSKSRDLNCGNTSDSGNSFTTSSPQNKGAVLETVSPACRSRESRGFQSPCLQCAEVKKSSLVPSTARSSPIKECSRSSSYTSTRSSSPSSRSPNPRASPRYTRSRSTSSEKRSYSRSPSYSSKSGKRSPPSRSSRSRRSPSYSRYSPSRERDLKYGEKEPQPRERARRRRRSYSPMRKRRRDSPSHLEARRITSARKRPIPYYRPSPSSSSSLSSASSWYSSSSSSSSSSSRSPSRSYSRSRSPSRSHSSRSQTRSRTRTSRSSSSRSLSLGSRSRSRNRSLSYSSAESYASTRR
Kind of experiment: Regulation by nSR100: microexon inclusion level (PSI) by RNA-Seq in mouse N2A cells depleted of nSR100 (Table 2). Type of experiment: cell-based.
Description: A-H) Percent of neural-regulated exons within each length class that is affected at 15<|ΔPSI|<25 and |ΔPSI|>25 by (A) RBFOX1 knockdown in human neural precursor cells; (B) MBNL1 and MBNL2 double knockdown in human HeLa cells; (C) ESRP1 knockdown in human PNT2 cells; (D) nSR100/Srrm4 knockdown in mouse N2A cells; (E) Ptbp1 knockdown in mouse N2A cells; (F) Ptbp2 knockout in mouse cortex (P1 stage); (G) Ptbp2 knockout in mouse embryonic brain (18.5 days post-conception); and (H) Rbfox1 knockout. p values correspond to two-sided proportion tests of regulated versus non-regulated events. I) Expression of nSR100 in different isolated brain cell types (Zhang et al., 2014). Error bars indicate SEM. […]
as §1
A multi-module analysis pipeline was developed that uses RNA-Seq, expressed sequence tag (EST) and cDNA data, as well as gene annotations and evolutionary conservation, to assemble libraries of exon-exon-junctions (EEJs) for subsequent read alignment to detect and quantify AS events in RNA-Seq data. […] Alt3 or Alt5 events were quantified based on the fraction of reads supporting the usage of each alternative splice site. […]

In the case of `CC(C)C[C@@H](C=O)NC(=O)[C@H](CC(C)C)NC(=O)[C@H](CC(C)C)NC(=O)OCc1ccccc1` [MG132] (Cbz-Leu-Leu-Leu-aldehyde), the nSR100 protein levels result in the experiment on nSR100 [1] is “increased levels of SRRM4; also recorded: significant increases in levels of nSR100”.
Regarding DTNB, the “Regulation by nSR100” value at nSR100 [2] was “YES (minimum threshold (PSI≥10) requirement for annotation as “YES”)”.
Sbf1: the “Regulation by nSR100” value on nSR100 [3] (YES/NO) is recorded as “YES”.
Turning to Dtnb, the “Regulation by nSR100” value at nSR100 [3] (threshold change of PSI≥10) was “YES”.

For the origin of these results see patent US10772928B2, “Modulation and detection of a neuronal alternative splicing regulatory network for treatment and diagnosis of neurological disorders” (The Governing Council of the University of Toronto, priority 2014, dated 2020).
